According to ChEMBL document CHEMBL3627608, “Crystal structures of human RIP2 kinase catalytic domain complexed with ATP-competitive inhibitors: Foundations for understanding inhibitor selectivity” (Bioorg Med Chem, 2015):

Key:
[1] = biological target: Mitogen-activated protein kinase 1 (Homo sapiens) (UniProt P28482); test: Inhibition of ERK2 (unknown origin) at 10 uM after 120 mins P33 radiolabeled kinase activity assay
[2] = biological target: Receptor-type tyrosine-protein kinase FLT3 (Homo sapiens) (UniProt P36888); test: Inhibition of FLT3 (unknown origin) at 10 uM after 120 mins P33 radiolabeled kinase activity assay
[3] = biological target: T1, Serine/threonine-protein kinase NLK (Homo sapiens) (UniProt Q9UBE8); test: Inhibition of NLK (unknown origin) at 10 uM after 120 mins P33 radiolabeled kinase activity assay
T1 sequence (whole entry): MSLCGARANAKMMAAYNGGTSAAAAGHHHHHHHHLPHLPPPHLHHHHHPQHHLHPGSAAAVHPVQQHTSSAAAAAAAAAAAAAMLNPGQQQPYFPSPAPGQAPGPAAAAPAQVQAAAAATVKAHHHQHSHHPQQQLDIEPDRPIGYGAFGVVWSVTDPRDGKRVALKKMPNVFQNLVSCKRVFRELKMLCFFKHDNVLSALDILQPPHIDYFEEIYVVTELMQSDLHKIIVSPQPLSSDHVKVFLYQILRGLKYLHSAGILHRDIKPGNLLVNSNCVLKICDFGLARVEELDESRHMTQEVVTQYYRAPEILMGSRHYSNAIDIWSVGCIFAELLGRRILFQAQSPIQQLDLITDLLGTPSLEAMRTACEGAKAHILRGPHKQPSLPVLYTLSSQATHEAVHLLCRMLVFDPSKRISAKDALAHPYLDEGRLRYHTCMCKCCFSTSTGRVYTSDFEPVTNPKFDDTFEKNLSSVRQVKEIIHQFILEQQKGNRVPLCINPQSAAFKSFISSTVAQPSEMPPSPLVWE

[4] = biological target: Serine/threonine-protein kinase PAK 1 (Homo sapiens) (UniProt Q13153); test: Inhibition of PAK1 (unknown origin) at 10 uM after 120 mins P33 radiolabeled kinase activity assay
[5] = biological target: Tyrosine-protein kinase JAK3 (Homo sapiens) (UniProt P52333); test: Inhibition of JAK3 (unknown origin) at 10 uM after 120 mins P33 radiolabeled kinase activity assay
[6] = biological target: Dual specificity mitogen-activated protein kinase kinase 1 (Homo sapiens) (UniProt Q02750); test: Inhibition of MEK1 (unknown origin) at 10 uM after 120 mins P33 radiolabeled kinase activity assay
[7] = biological target: SRSF protein kinase 3 (Homo sapiens) (UniProt Q9UPE1); test: Inhibition of MSSK1 (unknown origin) at 10 uM after 120 mins P33 radiolabeled kinase activity assay
[8] = biological target: T2, Serine/threonine-protein kinase Sgk3 (Homo sapiens) (UniProt Q96BR1); test: Inhibition of SGK3 (unknown origin) at 10 uM after 120 mins P33 radiolabeled kinase activity assay
T2 sequence (whole entry): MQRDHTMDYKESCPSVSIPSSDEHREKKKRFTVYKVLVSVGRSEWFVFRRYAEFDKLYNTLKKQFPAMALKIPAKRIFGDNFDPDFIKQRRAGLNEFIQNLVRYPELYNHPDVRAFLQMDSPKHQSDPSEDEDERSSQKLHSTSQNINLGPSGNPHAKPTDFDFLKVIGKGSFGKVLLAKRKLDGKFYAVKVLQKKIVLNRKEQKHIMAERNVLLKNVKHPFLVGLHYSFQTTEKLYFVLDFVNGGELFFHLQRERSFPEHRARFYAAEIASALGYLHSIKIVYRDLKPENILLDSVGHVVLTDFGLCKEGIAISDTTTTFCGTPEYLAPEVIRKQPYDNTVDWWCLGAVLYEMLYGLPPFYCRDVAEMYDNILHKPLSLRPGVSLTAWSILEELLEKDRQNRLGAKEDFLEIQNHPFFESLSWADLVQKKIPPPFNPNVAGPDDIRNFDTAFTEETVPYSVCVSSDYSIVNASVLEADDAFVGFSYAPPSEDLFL

[9] = biological target: T3, Tyrosine-protein kinase ZAP-70 (Homo sapiens) (UniProt P43403); test: Inhibition of ZAP70 (unknown origin) at 10 uM after 120 mins P33 radiolabeled kinase activity assay
T3 sequence (whole entry): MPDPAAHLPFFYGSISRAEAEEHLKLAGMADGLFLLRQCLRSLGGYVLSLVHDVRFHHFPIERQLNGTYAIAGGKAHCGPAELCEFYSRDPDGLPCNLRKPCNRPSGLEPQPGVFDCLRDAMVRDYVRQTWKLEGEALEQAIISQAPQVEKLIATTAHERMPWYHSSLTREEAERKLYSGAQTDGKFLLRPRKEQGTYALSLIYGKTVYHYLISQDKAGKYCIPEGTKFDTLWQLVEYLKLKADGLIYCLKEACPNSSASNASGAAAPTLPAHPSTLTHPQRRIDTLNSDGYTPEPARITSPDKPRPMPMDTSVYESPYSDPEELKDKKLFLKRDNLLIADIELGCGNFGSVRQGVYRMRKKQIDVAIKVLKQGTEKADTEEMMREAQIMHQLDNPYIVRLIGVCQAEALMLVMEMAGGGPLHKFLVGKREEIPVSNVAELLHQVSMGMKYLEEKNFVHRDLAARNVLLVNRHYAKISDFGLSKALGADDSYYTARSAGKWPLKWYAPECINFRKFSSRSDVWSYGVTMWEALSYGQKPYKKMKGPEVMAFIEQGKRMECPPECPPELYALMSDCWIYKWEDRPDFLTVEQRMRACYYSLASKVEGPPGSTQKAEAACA

[10] = biological target: RAC-gamma serine/threonine-protein kinase (Homo sapiens) (UniProt Q9Y243); test: Inhibition of AKT3 (unknown origin) at 10 uM after 120 mins P33 radiolabeled kinase activity assay
[11] = biological target: Cyclin-Y/Cyclin-dependent kinase 16 (Homo sapiens) (UniProt Q00536+Q8ND76); test: Inhibition of CDK16/cyclin Y (unknown origin) at 10 uM after 120 mins P33 radiolabeled kinase activity assay; assay type: protein-complex assay
[12] = biological target: CDK4/Cyclin D3 (Homo sapiens) (UniProt P11802+P30281); test: Inhibition of CDK4/cyclin D3 (unknown origin) at 10 uM after 120 mins P33 radiolabeled kinase activity assay; assay type: protein-complex assay
[13] = biological target: CDK6/cyclin D1 (Homo sapiens) (UniProt P24385+Q00534); test: Inhibition of CDK6/cyclin D1 (unknown origin) at 10 uM after 120 mins P33 radiolabeled kinase activity assay; assay type: protein-complex assay
[14] = biological target: Casein kinase II subunit alpha' (Homo sapiens) (UniProt P19784); test: Inhibition of CK2alpha2 (unknown origin) at 10 uM after 120 mins P33 radiolabeled kinase activity assay
[15] = biological target: Death-associated protein kinase 2 (Homo sapiens) (UniProt Q9UIK4); test: Inhibition of DAPK2 (unknown origin) at 10 uM after 120 mins P33 radiolabeled kinase activity assay
[16] = biological target: Interleukin-1 receptor-associated kinase 4 (Homo sapiens) (UniProt Q9NWZ3); test: Inhibition of IRAK4 (unknown origin) at 10 uM after 120 mins P33 radiolabeled kinase activity assay
[17] = biological target: Serine/threonine-protein kinase WNK1 (Homo sapiens) (UniProt Q9H4A3); test: Inhibition of WNK1 (unknown origin) at 10 uM after 120 mins P33 radiolabeled kinase activity assay

Sequence of Receptor-type tyrosine-protein kinase FLT3 (Homo sapiens) (P36888 whole entry): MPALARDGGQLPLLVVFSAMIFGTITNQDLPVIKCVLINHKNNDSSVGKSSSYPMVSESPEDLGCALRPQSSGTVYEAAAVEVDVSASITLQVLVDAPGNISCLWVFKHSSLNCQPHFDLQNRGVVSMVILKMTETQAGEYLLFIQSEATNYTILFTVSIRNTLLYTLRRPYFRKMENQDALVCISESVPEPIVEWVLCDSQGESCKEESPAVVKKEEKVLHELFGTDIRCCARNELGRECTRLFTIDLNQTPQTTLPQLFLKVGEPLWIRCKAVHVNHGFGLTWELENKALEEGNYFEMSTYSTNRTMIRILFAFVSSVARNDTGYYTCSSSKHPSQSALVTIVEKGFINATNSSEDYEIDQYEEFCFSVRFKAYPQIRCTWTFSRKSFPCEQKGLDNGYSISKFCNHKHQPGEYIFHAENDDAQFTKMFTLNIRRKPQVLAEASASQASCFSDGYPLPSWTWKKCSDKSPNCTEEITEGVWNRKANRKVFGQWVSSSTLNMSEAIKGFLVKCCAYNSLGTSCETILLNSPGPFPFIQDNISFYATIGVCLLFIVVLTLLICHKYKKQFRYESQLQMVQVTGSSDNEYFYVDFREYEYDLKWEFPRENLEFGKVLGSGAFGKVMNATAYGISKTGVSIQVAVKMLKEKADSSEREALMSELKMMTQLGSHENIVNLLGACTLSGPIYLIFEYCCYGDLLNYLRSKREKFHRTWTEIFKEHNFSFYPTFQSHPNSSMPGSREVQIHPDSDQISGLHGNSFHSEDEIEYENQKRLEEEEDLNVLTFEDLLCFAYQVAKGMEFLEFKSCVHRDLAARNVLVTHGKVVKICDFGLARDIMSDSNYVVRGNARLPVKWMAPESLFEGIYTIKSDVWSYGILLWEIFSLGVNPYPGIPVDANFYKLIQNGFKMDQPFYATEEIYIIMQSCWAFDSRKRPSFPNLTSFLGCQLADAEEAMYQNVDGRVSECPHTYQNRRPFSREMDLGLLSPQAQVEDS
Sequence of Death-associated protein kinase 2 (Homo sapiens) (Q9UIK4 whole entry, looked up): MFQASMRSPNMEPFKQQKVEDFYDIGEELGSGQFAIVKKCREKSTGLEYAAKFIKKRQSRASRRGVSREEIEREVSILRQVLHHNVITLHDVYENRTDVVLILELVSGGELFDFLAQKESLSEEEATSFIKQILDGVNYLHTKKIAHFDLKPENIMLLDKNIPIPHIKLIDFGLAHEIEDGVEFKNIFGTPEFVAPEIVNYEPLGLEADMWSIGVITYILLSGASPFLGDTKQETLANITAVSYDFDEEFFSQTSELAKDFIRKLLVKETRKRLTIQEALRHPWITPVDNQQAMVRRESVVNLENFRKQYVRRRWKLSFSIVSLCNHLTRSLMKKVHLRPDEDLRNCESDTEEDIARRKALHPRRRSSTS
Sequence of Mitogen-activated protein kinase 1 (Homo sapiens) (P28482 whole entry): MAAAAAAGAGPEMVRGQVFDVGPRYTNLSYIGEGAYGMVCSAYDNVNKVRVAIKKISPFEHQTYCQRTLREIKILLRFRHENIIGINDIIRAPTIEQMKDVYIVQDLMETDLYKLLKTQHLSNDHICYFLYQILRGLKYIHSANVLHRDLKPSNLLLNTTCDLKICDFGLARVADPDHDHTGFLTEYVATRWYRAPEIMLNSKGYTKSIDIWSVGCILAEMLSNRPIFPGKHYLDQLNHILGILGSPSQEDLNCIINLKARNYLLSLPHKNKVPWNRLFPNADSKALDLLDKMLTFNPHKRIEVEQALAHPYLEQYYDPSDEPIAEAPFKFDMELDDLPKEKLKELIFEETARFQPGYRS
Sequence of Serine/threonine-protein kinase PAK 1 (Homo sapiens) (Q13153 whole entry): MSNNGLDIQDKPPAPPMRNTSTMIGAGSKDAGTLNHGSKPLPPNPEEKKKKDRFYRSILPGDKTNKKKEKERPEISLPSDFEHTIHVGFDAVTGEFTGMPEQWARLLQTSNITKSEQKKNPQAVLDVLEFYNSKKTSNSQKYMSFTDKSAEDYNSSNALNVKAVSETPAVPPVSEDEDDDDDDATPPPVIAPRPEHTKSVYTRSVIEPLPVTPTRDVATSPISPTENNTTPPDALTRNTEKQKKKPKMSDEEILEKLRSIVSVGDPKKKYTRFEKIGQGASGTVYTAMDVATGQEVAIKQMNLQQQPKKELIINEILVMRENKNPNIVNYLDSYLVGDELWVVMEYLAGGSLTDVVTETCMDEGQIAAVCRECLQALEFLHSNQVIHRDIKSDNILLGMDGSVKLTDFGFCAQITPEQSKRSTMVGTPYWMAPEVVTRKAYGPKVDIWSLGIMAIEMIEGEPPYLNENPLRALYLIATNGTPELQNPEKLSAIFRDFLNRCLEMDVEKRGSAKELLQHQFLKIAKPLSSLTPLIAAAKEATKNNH
Sequence of SRSF protein kinase 3 (Homo sapiens) (Q9UPE1 whole entry): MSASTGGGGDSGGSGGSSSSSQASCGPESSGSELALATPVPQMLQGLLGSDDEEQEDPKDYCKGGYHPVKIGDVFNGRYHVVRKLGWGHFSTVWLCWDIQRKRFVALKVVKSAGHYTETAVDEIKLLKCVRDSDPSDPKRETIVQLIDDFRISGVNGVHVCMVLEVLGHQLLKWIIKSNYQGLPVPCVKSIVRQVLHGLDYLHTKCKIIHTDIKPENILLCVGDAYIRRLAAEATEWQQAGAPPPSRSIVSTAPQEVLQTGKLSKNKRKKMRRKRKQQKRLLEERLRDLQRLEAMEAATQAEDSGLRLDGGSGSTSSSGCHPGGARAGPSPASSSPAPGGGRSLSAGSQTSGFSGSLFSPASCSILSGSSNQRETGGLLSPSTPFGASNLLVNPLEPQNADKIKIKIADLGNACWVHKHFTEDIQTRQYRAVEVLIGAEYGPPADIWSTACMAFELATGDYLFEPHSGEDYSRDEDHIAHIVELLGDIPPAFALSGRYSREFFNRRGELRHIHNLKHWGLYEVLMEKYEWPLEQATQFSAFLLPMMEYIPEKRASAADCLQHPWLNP
Sequence of Dual specificity mitogen-activated protein kinase kinase 1 (Homo sapiens) (Q02750 whole entry): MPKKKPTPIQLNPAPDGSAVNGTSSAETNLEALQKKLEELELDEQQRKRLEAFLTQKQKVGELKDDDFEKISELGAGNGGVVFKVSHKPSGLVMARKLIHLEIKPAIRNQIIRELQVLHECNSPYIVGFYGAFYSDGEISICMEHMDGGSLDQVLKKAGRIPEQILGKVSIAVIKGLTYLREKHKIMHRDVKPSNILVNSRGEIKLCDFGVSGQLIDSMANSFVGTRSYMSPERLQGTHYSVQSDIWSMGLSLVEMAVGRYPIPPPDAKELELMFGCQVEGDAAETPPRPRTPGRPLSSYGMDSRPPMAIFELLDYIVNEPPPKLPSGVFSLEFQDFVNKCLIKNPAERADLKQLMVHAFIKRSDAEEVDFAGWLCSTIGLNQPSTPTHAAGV
Sequence of Casein kinase II subunit alpha' (Homo sapiens) (P19784 whole entry, looked up): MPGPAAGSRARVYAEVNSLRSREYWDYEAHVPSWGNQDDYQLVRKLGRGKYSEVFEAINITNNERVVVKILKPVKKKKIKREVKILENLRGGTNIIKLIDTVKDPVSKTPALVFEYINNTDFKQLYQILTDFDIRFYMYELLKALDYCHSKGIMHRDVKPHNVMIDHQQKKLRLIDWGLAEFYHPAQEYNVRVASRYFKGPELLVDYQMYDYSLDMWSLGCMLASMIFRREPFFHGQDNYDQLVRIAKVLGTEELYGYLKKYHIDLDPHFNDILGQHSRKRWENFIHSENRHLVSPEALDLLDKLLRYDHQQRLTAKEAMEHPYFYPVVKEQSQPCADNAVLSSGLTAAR
Sequence of Interleukin-1 receptor-associated kinase 4 (Homo sapiens) (Q9NWZ3 whole entry): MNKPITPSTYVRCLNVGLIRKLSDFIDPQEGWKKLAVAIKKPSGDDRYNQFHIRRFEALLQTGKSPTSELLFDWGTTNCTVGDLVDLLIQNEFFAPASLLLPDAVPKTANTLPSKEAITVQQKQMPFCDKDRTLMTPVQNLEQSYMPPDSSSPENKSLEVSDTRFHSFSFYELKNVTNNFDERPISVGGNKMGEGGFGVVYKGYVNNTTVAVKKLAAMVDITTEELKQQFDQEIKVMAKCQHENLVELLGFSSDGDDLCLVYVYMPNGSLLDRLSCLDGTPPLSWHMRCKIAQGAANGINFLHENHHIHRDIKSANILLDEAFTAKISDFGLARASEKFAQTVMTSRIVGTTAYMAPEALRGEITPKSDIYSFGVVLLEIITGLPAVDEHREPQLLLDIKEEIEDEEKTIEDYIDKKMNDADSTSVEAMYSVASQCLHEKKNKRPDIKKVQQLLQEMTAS
Sequence of RAC-gamma serine/threonine-protein kinase (Homo sapiens) (Q9Y243 whole entry): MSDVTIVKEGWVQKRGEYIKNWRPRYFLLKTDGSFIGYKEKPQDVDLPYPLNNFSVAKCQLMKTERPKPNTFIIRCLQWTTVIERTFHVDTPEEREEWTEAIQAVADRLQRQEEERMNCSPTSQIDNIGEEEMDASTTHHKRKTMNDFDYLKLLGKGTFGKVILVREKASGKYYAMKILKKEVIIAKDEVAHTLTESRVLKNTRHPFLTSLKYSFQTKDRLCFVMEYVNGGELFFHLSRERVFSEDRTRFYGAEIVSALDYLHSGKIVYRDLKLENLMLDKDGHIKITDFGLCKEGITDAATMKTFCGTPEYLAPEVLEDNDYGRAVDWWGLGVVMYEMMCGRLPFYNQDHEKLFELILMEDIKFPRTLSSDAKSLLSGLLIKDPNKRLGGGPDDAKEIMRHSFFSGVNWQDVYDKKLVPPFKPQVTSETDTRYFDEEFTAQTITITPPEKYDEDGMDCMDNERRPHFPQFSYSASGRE

SMILES | inhibition [1] [%] | inhibition [2] [%] | inhibition [3] [%] | inhibition [4] [%] | inhibition [5] [%] | inhibition [6] [%] | inhibition [7] [%] | inhibition [8] [%] | inhibition [9] [%] | inhibition [10] [%] | inhibition [11] [%] | inhibition [12] [%] | inhibition [13] [%] | inhibition [14] [%] | inhibition [15] [%] | inhibition [16] [%] | inhibition [17] [%]
CS(=O)(=O)c1cccc(Nc2nccc(-c3sc(N4CCOCC4)nc3-c3cccc(NS(=O)(=O)c4c(F)cccc4F)c3)n2)c1 | -2.5 | 95.7 | 88.6 | 56.5 | 15.9 | 72.5 | -1.37 | 3.98 | -0.68 | 6.38 | 92 | 26.6 | 26.4 | 39.8 | 1.67 | – | –
COCCNC(=O)c1ccc2c(c1)nc(-c1cnc(-c3ccc(Cl)cc3)[nH]1)n2CCOC | 1.34 | 27.6 | 55.2 | 5.25 | -7.14 | – | – | 5.07 | 0.28 | 6.03 | – | – | 3.54 | -7.82 | 6.92 | 13.9 | 8.03
CC(C)(C)c1cc(NC(=O)Nc2ccc(Oc3ccncc3)cc2)no1 | -0.63 | 98.6 | 51.5 | – | – | 22 | 85 | 10 | -5.86 | – | 84.5 | 92.5 | 17.4 | – | 3.58 | 24.7 | 5.52
